According to patent US20110039763A1, “TARGETED ANTIMICROBIAL MOIETIES” (C3 JIAN, INC., priority 2009, published 2011):
Entries after “also recorded” stand apart in the source; their conditions may differ.

Columns and labels:
microorganisms [1] = experiment: Targeting peptide binding to target microorganisms (Tables 3, 10, 12); details: microorganism(s) the targeting peptide binds; binding in aqueous buffers varied with peptide solubility, preferably 1x PBS
microorganisms [2] = experiment: Peptide activities: targeting/binding, antimicrobial, growth or phenotype altering (Tables 7, 8); assay type: cell-based; details: peptides having multiple activities
microorganisms [3] = experiment: Morphology, biofilm and growth disrupting peptides (Table 5); assay type: cell-based; parameters: key: A: Peptide aggregates; B: Less hyphal formation; Clumps; Diffuse clumps and small polyps; F: Diffuse growth; H: Thin; I: Growth inhibition; Microcolony formation; Rippled; Small polyps; Thick; W: Halo formation on top, microlonies on bottom
Source text: In certain embodiments peptides that induce alterations in phenotype or other biological activities can also be used as antimicrobial effector moieties.

Substance	Target(s) (microorganisms [1])	Activities (microorganisms [2])	Organism, effect: C. jejuni (microorganisms [3])	Organism, effect: E. coli (microorganisms [3])	Organism, effect: E. faecalis (microorganisms [3])	Organism, effect: MRSA (microorganisms [3])	Organism, effect: S. epidermidis (microorganisms [3])	Organism, effect: S. pneumoniae (microorganisms [3])
PF-363: peptide having multiple activities (chain 1 SMLSVTVMCLMHASVAANQAMEKKV; chain 2 SMLSVTVMCLMHASVAANQAMEKKV; Peptide with targeting and/or antimicrobial activity)	B. subtilis; also recorded: E. coli; also recorded: P. aeruginosa; also recorded: C. albicans; also recorded: S. pneumoniae; also recorded: E. faecalis	G B	C. jejuni (D)	E. coli (C)	E. faecalis (D)	MRSA (H)	S. epidermidis (S)	S. pneumoniae (R)
PF-370: peptide having multiple activities (chain 1 VIFLHKESGNLKEIFY; chain 2 VIFLHKESGNLKEIFY; Peptide with targeting and/or antimicrobial activity)	S. epidermidis; also recorded: E. coli; also recorded: P. aeruginosa; also recorded: E. faecalis; also recorded: C. jejuni	G B		E. coli (R)		MRSA (C)	S. epidermidis (C)	
PF-373: peptide having multiple activities (chain 1 HFYLLFER; chain 2 HFYLLFER; Peptide with targeting and/or antimicrobial activity)	S. epidermidis and E. coli and P. aeruginosa and C. albicans and MRSA and E. faecalis and C. jejuni	G B				MRSA (M)	S. epidermidis (M)	
PF-378: peptide having multiple activities (chain 1 ESAKSNLNFLMQEEWALFLLL; chain 2 ESAKSNLNFLMQEEWALFLLL; Peptide with targeting and/or antimicrobial activity)	B. subtilis; also recorded: B. fragilis; also recorded: E. coli; also recorded: P. aeruginosa; also recorded: C. jeikeium	G B				MRSA (M)	S. epidermidis (M)	
PF-381: peptide having multiple activities (chain 1 QGANPCQQVGFTVNDPDCRLAKTV; chain 2 QGANPCQQVGFTVNDPDCRLAKTV; Peptide with targeting and/or antimicrobial activity)	E. coli; also recorded: P. aeruginosa; also recorded: C. jejuni	G B		E. coli (R)	E. faecalis (C)	MRSA (C)	S. epidermidis (C)	
PF-382: peptide having multiple activities (chain 1 KYKCSWCKRVYTLRKDHKTAR; chain 2 KYKCSWCKRVYTLRKDHKTAR; Peptide with targeting and/or antimicrobial activity)	S. epidermidis; also recorded: B. subtilis; also recorded: B. fragilis; also recorded: E. coli; also recorded: P. aeruginosa; also recorded: E. faecalis; also recorded: C. jeikeium; also recorded: C. jejuni	G B				MRSA (M)		
PF-383: peptide having multiple activities (chain 1 WSEIEINTKQSN; chain 2 WSEIEINTKQSN; Peptide with targeting and/or antimicrobial activity)	S. epidermidis; also recorded: B. subtilis; also recorded: B. fragilis; also recorded: E. coli; also recorded: C. jejuni	G B		E. coli (R)			S. epidermidis (C)	
PF-385: peptide having multiple activities (chain 1 MIKKSILKIKYYVPVLISLTLILSA; chain 2 MIKKSILKIKYYVPVLISLTLILSA; Peptide with targeting and/or antimicrobial activity)	S. epidermidis; also recorded: E. coli; also recorded: P. aeruginosa; also recorded: C. albicans; also recorded: E. faecalis	G B		E. coli (A)				
PF-390: peptide having multiple activities (chain 1 VVAYVITQVGAIRF; chain 2 VVAYVITQVGAIRF; Peptide with targeting and/or antimicrobial activity)	S. epidermidis and P. aeruginosa and C. albicans and MRSA	G B	C. jejuni (D)	E. coli (C)	E. faecalis (D)	MRSA (D)	S. epidermidis (D)	S. pneumoniae (D)
PF-392: peptide having multiple activities (chain 1 DPAGCNDIVRKYCK; chain 2 DPAGCNDIVRKYCK; Peptide with targeting and/or antimicrobial activity)	S. epidermidis; also recorded: B. subtilis; also recorded: S. pneumoniae; also recorded: C. jeikeium; also recorded: C. jejuni	G B	C. jejuni (A)		E. faecalis (A)	MRSA (S)		
PF-393: peptide having multiple activities (chain 1 DLVQSILSEFKKSG; chain 2 DLVQSILSEFKKSG; Peptide with targeting and/or antimicrobial activity)	S. epidermidis and E. coli and C. albicans and MRSA and S. pneumoniae and C. jejuni	G B	C. jejuni (R)		E. faecalis (A)	MRSA (C)	S. epidermidis (R)	S. pneumoniae (R)
PF-394: peptide having multiple activities (chain 1 VLKEECYQKN; chain 2 VLKEECYQKN; Peptide with targeting and/or antimicrobial activity)	S. epidermidis and MRSA and C. jejuni	G B			E. faecalis (A)	MRSA (C)		
PF-395: peptide having multiple activities (chain 1 YCVPLGNMGNMNNKIW; chain 2 YCVPLGNMGNMNNKIW; Peptide with targeting and/or antimicrobial activity)	S. epidermidis; also recorded: E. coli; also recorded: P. aeruginosa; also recorded: S. pneumoniae; also recorded: E. faecalis; also recorded: C. jeikeium; also recorded: C. jejuni	G B		E. coli (R)		MRSA (C)	S. epidermidis (C)	
PF-396: peptide having multiple activities (chain 1 LIYTILASLGVLTVLQAILGREPKAVKA; chain 2 LIYTILASLGVLTVLQAILGREPKAVKA; Peptide with targeting and/or antimicrobial activity)	S. epidermidis; also recorded: E. coli; also recorded: P. aeruginosa; also recorded: C. albicans; also recorded: E. faecalis; also recorded: C. jeikeium	G B		E. coli (C)	E. faecalis (C)	MRSA (C)	S. epidermidis (S)	
PF-397: peptide having multiple activities (chain 1 VEDLMEDLNA; chain 2 VEDLMEDLNA; Peptide with targeting and/or antimicrobial activity)	S. epidermidis and MRSA and S. pneumoniae and E. faecalis and C. jejuni	G B					S. epidermidis (C)	
PF-401: peptide having multiple activities (chain 1 YWLSRVTTGHSFAFEKPVPLSLTIK; chain 2 YWLSRVTTGHSFAFEKPVPLSLTIK; Peptide with targeting and/or antimicrobial activity)	S. epidermidis and E. coli and P. aeruginosa and MRSA and E. faecalis and C. jejuni	G B		E. coli (R)	E. faecalis (C)	MRSA (C)	S. epidermidis (C)	
PF-403: peptide having multiple activities (chain 1 LLSTEQLLKYYDGETFDGFQLPSNE; chain 2 LLSTEQLLKYYDGETFDGFQLPSNE; Peptide with targeting and/or antimicrobial activity)	E. coli; also recorded: P. aeruginosa; also recorded: S. pneumoniae; also recorded: E. faecalis; also recorded: C. jeikeium; also recorded: C. jejuni	G B		E. coli (R)		MRSA (M)	S. epidermidis (M)	
PF-404: peptide having multiple activities (chain 1 VLYFQATVV; chain 2 VLYFQATVV; Peptide with targeting and/or antimicrobial activity)	S. epidermidis; also recorded: E. coli; also recorded: P. aeruginosa; also recorded: E. faecalis; also recorded: C. jeikeium; also recorded: C. jejuni	G B				MRSA (M)	S. epidermidis (M)	
PF-405: peptide having multiple activities (chain 1 LVRIEVDDLEEWYERNFI; chain 2 LVRIEVDDLEEWYERNFI; Peptide with targeting and/or antimicrobial activity)	S. epidermidis; also recorded: E. coli; also recorded: E. faecalis	G B				MRSA (M)		
